Results reported in patent US20230392173A1, “ENGINEERED BIOSYNTHETIC PATHWAY FOR PRODUCTION OF 4-AMINOPHENYLETHYLAMINE BY FERMENTATION” (Zymergen Inc., priority 2020, published 2023).

How the values were obtained:
Format in all cases: cell-based
Bacillus licheniformis = test system: Bacillus licheniformis
Protocol: (§1) FIG. 1: Toxicity impact of 4-APEA across a range of organisms tested in an Enzyscreen system. Various organisms are grown in media that is supplemented with the molecule of interest, and the growth of the organism is monitored over time. Analysis of the growth-time-course data allows determination of toxicity properties of the molecule of interest, such as the Minimal Inhibitory Concentration (MIC), the concentration at which growth is slowed to half (Ki), and the slope at which increased toxicity effects are observed (alpha). For FIG. 1, product toxicity was measured as a function of reduced substrate uptake with increasing product concentration.
(§2) The term “Ki,” as used herein, refers to the concentration of a chemical (e.g., 4-APEA) at which the maximal growth rate of cells in culture is slowed by half. Cultures of the cells are grown in media supplemented with varying concentrations of a chemical, and the cell growth is monitored over time. Exponential growth curve data at each chemical concentration are used to determine a specific growth rate p using the following equation:
(§3) where: X=cell concentration X0=cell concentration at time (t)=0 μ=specific growth rate. The maximal growth rate for each chemical concentration is determined (μobs) and the Ki is the chemical concentration at which the maximal growth rate has been slowed to half of the maximal growth rate in the absence of the chemical (μmax). Ki (denoted K1 below) can be determined from the equation:
(§4) where: CI=concentration of inhibitor KI=inhibition constant—inhibitor concentration where growth rate is half of maximum α=inhibition parameter to fit data μmax=the maximum growth rate of a culture in the absence of a chemical μobs=the maximum growth rate of a culture at a given concentration of a chemical
(§5) The term “alpha” (“α”), as used herein, refers to the slope at which toxicity effects are observed. Cultures of the cells are grown in media supplemented with increasing concentrations of a chemical, and the cell growth is monitored over time. Alpha can be determined from the equation: […]
(§6) One obstacle to efficient production of 4-aminophenylethylamine (4-APEA) by fermentation is that 4-APEA is toxic to many host microbes used conventionally for fermentation. FIG. 1 depicts the concentration of 4-APEA at which an organism's growth is slowed by half (Ki) and the slope (alpha) at which toxicity effects are observed over increasing 4-APEA concentrations. A larger Ki and smaller alpha indicate higher tolerance and less susceptibility to inhibition, respectively. […] K. phaffi is expected to perform similarly to K. pastoris as a production host.

Komagataella phaffi = test system: Komagataella phaffi
Protocol: as §1, §2, §3, §4, §5, §6

Saccharomyces cerevisiae = test system: Saccharomyces cerevisiae
Protocol: as §1, §2, §3, §4, §5, §6

Yarrowia lipolytica = test system: Yarrowia lipolytica
Protocol: as §1, §2, §3, §4, §5, §6

NCCc1ccc(N)cc1 [Strain 4-APEA, 4-aminophenylethylamine]
toxicity of 4-APEA (growth inhibition) (Bacillus licheniformis): better results
toxicity of 4-APEA (growth inhibition) (Komagataella phaffi): better results
toxicity of 4-APEA (growth inhibition) (Saccharomyces cerevisiae): substantial toxicity
toxicity of 4-APEA (growth inhibition) (Yarrowia lipolytica): better results
